In assay [1] the test system is hepatic fibrosis in rats induced by dimethylnitrosamine (DMN). The assay can be described thus: Treatment effect on hepatic fibrosis in rats induced by dimethylnitrosamine (DMN). Format: in vivo, rat. As for the experimental part:
Pharmacological model: The hepatic fibrosis model was induced by intraperitoneal injections of dimethylnitrosamine at a dosage of […] rat wt, the injection was given on the first consecutive 3 days of each week over a period of 4 weeks, once per day.
Groups and drug administration: After establishing the model, the model rats were divided into model control, Fuzheng Huayu Prep I, Fuzheng Huayu Prep II, and (N-Acetylcysteine, NAC) groups, also normal rats was set as the normal control, with total 5 groups. The model rats in Fuzheng Huayu Prep I and II took orally Fuzheng Huayu decoction at the dosage of 4.6 g/kg rat wt from the beginning of the 5th week to end of the 8th week, one time per day for 4 weeks, NAC group received NAC at the dosage of 100 mg/kg wt, and controls took the same volume of saline. (body weight equivalent to 10 times of 65 kg adult dosage).

The subject of assay [2] is liver fibrosis model in rat induced by CCl4. Description: Prophylaxis action on liver fibrosis in rats induced by CCl4 with high lipid, low protein food. Format: in vivo. On the procedure: Pharmacological model: The liver fibrosis model in rat was induced by hypodermical injection of CCl4 and fed with the food containing high lipid and low protein. 100 wt % CCl4 was used at the first injection with a dosage of 1 ml/kg wt rat, then 40 wt % CCl4 in olive oil with a dosage of 3 ml/kg wt. was applied, twice per week and lasting for 2 weeks. During the first 2 weeks of intoxication, the rats were fed with the food containing 79.5 wt % maizena, 20 wt % grease and 0.5 wt % cholesterol, then with the pure maize food for later 4 weeks.
All dosages were 10 times human dosage with 65 kg by the same body weight.

Setting [3] is: DMN fibrotic rats, 4 weeks treatment, x ± s.
[4] abbreviates: Preps 4.6 g/kg or NAC 100 mg/kg once daily, weeks 5-8.
Setting [5] is: CCl4 fibrotic rats, 6 weeks dosing, x ± s.
The mark [6] stands for this setting: Preps 4.6 g/kg or VitE 50 mg/kg orally once daily for 6 weeks.

Marks after values point to notes of the source that are not given here.

`CC(=O)N[C@@H](CS)C(=O)O` [NAC, N-Acetylcysteine]: in assay [1] (setting [3]), the “Hepatic Hyp content” value was determined as 482.1 ± 124.4 μg/g liver, the “Hepatic SOD activity” value is on record as 252.2 ± 47.6^# 10^3 × NU/g protein, the “Serum ALT” value was 67.7 ± 36.1 U/L and the “Serum AST” value was 76.5 ± 25.5 U/L. In addition, in assay [1] (setting [3]), the Serum Alb is 30.9 ± 5.5 g/L, the “Serum T. BIL” value came out at 18.8 ± 2.8 µmol/L and the Serum T. Protein worked out at 60.4 ± 11.2 g/L. Moreover, in assay [1] (setting [4]), the “Liver fibrotic stage S0 (number of rats)” value is recorded as 0, the “Liver fibrotic stage S1 (number of rats)” value is reported as 1, the “Liver fibrotic stage S2 (number of rats)” value amounted to 5 and the “Liver fibrotic stage S3 (number of rats)” value came out at 4. In addition, in assay [1] (setting [4]), the “Liver fibrotic stage S4 (number of rats)” value came out at 2 and the “R (Ridit examination of liver fibrotic stages)” value was 0.415^#.
As to Vitamin E [Vit E], the “Liver tissue pathological examination (hepatic inflammation, collagen deposition; HE and Sirius red staining), in words” value in assay [2] (CCl4 fibrotic rats, vs. model control) was “much better conditions of hepatic inflammation compared to the controls”. In assay [2] (setting [5]), the “Hepatic Hyp” value is reported as 296.2 ± 49.8 μg/g liver, the “Hepatic MDA” value is recorded as 4.5 ± 1.3 μmol/g protien, the “Hepatic SOD” value came to 1062 ± 83 NU/g liver and the “Hepatic Triglyceride” value turned out to be 12.6 ± 3.7 μg/g liver. For the same compound, in assay [2] (setting [5]), the “Serum ALT” value is recorded as 106.4 ± 45.9 U/L, the “Serum AST” value came to 127.7 ± 37.2 U/L, the “Serum T. BIL” value was 14.1 ± 3.3 µmol/L and the “Serum T. Protein” value is 55.8 ± 4.2 g/L. For the same compound, in assay [2] (setting [6]), the “Liver fibrotic stage S0 (number of rats)” value stood at 0, the “Liver fibrotic stage S1 (number of rats)” value was found to be 6, the “Liver fibrotic stage S2 (number of rats)” value is given as 6 and the “Liver fibrotic stage S3 (number of rats)” value turned out to be 2. Also, in assay [2] (setting [6]), the “Liver fibrotic stage S4 (number of rats)” value stood at 0 and the “R (Ridit examination of liver fibrotic stages)” value is listed as 0.506^#.

Values taken from patent US9138449B2, “Medicinal composition for liver diseases” (Shanghai Sundise Chinese Medicine Technology Development …, priority 2006, dated 2015).
